The values that follow come from ChEMBL document CHEMBL1152560, “Substituted 2-arylbenzothiazoles as kinase inhibitors: hit-to-lead optimization” (Bioorg Med Chem, 2009).

The term residual activity denotes the signal under treatment as a percentage of the control signal.

Assay [1] deals with Tyrosine-protein kinase HCK (Homo sapiens) (UniProt P08631). The assay is described as follows: Residual activity of HCK at 0.1 uM by microplate scintillation counting.
Assay [2] has as its target Vascular endothelial growth factor receptor 2 (Homo sapiens, UniProt P35968). Briefly: Residual activity of VEGFR2 at 1 uM by microplate scintillation counting.
Assay [3] addresses G protein-coupled receptor kinase 4 (Homo sapiens) (UniProt P32298). Briefly: Residual activity of GRK4 at 0.1 uM by microplate scintillation counting.
Assay [4] concerns the target T1, Inhibitor of nuclear factor kappa-B kinase subunit alpha (Homo sapiens) (UniProt O15111).
T1 sequence (whole entry): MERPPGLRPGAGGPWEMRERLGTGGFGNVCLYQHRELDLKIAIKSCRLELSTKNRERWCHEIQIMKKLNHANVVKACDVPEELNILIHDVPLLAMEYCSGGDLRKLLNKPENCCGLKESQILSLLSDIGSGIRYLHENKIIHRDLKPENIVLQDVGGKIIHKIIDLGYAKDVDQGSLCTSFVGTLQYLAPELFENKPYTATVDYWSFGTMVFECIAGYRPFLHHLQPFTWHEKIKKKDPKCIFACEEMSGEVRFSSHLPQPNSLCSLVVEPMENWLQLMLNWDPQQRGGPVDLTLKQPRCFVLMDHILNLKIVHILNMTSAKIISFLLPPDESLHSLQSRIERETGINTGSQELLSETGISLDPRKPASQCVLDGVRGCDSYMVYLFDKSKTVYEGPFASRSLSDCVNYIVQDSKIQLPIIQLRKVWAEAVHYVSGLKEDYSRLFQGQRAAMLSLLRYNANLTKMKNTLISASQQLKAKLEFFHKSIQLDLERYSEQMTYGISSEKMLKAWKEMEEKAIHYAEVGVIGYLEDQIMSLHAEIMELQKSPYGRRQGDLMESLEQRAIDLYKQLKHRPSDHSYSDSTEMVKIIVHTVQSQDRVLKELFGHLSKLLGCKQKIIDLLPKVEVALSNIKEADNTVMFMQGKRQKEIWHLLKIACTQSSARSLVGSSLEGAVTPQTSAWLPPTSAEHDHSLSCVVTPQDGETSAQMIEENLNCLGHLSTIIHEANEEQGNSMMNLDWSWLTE
The assay is described as follows: Residual activity of IKKalpha at 10 uM by microplate scintillation counting.

Assay [5] addresses Wee1-like protein kinase (Homo sapiens) (UniProt P30291). Briefly: Residual activity of WEE1 at 1 uM by microplate scintillation counting.
The target of assay [6] is Ephrin type-A receptor 2 (Homo sapiens) (UniProt P29317). The assay is described as follows: Residual activity of EPHA2 at 10 uM by microplate scintillation counting.
For assay [7], the target named is T2, Serine/threonine-protein kinase Sgk3 (Homo sapiens) (UniProt Q96BR1).
T2 sequence (whole entry): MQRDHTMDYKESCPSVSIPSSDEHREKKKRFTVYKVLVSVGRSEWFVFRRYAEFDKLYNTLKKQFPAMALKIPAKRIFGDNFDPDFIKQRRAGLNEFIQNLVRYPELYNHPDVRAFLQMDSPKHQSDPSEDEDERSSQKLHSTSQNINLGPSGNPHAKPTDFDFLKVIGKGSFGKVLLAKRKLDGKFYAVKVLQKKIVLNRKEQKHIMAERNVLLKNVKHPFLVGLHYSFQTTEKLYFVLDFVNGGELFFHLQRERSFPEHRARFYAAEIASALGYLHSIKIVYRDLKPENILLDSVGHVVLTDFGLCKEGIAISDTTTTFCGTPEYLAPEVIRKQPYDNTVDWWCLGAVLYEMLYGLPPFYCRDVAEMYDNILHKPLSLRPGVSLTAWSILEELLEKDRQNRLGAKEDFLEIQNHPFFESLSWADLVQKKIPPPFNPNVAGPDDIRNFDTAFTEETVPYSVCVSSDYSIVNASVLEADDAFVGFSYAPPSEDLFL
Briefly: Residual activity of SGK3 at 1 uM by microplate scintillation counting.

Assay [8] deals with T3, Serine/threonine-protein kinase PLK4 (Homo sapiens) (UniProt O00444).
T3 sequence (whole entry): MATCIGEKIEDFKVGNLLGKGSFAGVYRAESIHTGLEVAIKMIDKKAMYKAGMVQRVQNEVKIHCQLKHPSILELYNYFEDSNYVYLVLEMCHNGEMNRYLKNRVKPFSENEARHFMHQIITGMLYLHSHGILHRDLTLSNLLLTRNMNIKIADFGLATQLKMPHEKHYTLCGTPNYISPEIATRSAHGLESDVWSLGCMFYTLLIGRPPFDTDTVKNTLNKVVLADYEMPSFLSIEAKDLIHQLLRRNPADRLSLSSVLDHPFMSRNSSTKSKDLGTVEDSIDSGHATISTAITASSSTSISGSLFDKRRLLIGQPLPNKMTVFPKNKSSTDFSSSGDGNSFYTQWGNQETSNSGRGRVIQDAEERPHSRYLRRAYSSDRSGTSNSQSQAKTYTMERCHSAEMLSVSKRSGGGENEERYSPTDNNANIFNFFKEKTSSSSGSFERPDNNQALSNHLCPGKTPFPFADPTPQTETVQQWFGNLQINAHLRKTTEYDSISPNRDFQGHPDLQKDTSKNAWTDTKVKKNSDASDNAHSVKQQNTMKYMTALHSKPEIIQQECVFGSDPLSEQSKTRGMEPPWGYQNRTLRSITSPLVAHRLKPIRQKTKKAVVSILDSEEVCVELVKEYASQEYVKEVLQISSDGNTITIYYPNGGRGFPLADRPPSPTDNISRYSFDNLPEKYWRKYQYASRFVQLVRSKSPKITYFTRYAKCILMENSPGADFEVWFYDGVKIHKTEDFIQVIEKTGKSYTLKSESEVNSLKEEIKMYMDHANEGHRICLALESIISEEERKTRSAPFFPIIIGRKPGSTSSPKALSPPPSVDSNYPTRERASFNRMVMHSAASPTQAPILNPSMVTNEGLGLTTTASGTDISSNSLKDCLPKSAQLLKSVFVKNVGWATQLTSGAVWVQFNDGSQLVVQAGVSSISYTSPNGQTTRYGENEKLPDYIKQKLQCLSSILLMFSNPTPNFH
The assay is described as follows: Residual activity of SAK at 10 uM by microplate scintillation counting.

The target in assay [9] is Rho-associated protein kinase 1 (Homo sapiens) (UniProt Q13464). Briefly: Residual activity of ROCK1 at 10 uM by microplate scintillation counting.

Each structure is given as a SMILES string.

Sequence of Vascular endothelial growth factor receptor 2 (P35968 whole entry): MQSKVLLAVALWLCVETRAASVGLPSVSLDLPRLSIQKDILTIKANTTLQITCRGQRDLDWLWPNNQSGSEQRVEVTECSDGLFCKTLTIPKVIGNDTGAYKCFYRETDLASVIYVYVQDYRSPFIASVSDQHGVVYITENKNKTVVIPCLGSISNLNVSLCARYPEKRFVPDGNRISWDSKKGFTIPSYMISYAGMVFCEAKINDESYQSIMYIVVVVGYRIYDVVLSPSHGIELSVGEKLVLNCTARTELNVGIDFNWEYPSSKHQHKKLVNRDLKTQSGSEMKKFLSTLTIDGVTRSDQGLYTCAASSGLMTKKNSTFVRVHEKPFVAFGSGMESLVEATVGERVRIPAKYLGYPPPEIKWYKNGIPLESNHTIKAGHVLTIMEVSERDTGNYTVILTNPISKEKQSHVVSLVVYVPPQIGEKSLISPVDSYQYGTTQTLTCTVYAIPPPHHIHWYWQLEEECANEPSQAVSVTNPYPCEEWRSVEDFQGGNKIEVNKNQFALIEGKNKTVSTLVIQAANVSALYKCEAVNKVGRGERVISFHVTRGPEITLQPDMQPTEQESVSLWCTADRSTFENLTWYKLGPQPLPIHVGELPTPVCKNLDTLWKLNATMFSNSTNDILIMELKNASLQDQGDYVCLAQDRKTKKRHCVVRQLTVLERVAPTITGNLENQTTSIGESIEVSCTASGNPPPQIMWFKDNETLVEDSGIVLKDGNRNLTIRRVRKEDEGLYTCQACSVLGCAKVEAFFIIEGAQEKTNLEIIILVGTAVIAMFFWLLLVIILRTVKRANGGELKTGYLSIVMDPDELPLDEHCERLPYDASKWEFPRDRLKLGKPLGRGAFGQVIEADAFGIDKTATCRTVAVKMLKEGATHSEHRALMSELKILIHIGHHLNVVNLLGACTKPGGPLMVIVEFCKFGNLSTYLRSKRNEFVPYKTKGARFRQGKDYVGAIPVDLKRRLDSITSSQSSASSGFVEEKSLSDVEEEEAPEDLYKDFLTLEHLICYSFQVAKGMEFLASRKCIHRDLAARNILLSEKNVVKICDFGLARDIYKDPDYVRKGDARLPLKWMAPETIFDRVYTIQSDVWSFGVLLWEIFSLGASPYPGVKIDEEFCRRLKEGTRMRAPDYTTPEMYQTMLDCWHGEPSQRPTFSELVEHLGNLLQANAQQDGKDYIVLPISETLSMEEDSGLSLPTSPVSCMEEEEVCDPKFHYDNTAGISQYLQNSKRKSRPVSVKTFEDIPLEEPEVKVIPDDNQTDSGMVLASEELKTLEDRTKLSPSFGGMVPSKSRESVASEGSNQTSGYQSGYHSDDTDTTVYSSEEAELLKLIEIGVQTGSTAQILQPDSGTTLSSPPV
Sequence of Tyrosine-protein kinase HCK (Homo sapiens) (P08631 2-526 limits assumed): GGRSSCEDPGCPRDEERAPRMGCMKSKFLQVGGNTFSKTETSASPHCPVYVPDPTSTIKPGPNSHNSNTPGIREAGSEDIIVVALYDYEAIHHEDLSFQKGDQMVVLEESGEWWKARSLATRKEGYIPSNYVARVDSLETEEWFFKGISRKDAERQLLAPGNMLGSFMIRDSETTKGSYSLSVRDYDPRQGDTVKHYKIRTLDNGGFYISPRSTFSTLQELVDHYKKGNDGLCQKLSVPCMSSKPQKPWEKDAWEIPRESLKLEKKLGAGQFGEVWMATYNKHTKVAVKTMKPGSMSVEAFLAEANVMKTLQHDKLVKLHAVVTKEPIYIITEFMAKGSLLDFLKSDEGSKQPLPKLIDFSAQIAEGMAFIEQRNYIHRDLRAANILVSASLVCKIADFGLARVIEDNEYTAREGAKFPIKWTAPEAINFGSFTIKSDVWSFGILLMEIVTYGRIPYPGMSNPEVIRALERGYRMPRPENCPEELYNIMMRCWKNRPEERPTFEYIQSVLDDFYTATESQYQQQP
Sequence of Wee1-like protein kinase (Homo sapiens) (P30291 whole entry, looked up): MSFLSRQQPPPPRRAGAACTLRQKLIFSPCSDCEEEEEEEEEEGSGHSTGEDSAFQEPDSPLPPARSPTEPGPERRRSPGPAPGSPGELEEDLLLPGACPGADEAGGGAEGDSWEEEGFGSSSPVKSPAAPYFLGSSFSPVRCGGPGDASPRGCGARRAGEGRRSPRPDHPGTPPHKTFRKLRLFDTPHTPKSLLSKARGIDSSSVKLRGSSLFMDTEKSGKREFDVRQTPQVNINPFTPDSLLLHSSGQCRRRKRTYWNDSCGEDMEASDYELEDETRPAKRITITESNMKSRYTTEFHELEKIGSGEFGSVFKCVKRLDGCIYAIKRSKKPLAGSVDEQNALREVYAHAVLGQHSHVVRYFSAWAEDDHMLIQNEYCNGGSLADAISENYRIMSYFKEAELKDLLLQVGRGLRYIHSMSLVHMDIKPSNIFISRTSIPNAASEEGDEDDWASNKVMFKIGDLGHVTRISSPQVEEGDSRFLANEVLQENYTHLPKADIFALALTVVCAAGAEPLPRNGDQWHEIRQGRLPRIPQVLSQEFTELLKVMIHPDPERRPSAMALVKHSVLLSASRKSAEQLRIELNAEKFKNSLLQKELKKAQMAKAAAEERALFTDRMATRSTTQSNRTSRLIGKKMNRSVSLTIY
Sequence of Ephrin type-A receptor 2 (Homo sapiens) (P29317 whole entry): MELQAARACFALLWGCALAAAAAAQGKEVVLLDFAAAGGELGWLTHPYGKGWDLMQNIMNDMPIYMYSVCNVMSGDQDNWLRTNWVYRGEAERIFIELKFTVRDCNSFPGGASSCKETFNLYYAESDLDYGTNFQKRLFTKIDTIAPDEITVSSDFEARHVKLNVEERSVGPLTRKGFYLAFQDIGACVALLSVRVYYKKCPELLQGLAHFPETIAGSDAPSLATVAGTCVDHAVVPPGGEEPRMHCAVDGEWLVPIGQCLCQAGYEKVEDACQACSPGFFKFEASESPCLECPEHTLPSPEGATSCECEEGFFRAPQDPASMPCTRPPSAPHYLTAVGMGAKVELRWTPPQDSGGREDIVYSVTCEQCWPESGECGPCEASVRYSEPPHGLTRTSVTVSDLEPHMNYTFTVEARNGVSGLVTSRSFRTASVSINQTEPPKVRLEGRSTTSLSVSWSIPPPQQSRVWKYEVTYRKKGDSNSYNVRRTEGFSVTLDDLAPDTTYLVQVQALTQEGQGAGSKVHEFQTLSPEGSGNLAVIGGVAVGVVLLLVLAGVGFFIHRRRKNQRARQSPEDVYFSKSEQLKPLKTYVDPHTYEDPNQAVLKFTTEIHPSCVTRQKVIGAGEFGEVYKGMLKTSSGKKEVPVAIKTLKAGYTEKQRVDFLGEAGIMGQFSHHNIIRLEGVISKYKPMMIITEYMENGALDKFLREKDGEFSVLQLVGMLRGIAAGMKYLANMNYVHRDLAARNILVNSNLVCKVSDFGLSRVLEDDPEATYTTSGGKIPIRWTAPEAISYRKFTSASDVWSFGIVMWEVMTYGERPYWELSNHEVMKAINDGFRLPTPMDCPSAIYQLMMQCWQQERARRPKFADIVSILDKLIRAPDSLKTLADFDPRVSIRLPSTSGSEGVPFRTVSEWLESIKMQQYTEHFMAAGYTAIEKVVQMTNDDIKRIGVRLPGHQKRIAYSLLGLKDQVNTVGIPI
Sequence of Rho-associated protein kinase 1 (Homo sapiens) (Q13464 2-1354 limits assumed): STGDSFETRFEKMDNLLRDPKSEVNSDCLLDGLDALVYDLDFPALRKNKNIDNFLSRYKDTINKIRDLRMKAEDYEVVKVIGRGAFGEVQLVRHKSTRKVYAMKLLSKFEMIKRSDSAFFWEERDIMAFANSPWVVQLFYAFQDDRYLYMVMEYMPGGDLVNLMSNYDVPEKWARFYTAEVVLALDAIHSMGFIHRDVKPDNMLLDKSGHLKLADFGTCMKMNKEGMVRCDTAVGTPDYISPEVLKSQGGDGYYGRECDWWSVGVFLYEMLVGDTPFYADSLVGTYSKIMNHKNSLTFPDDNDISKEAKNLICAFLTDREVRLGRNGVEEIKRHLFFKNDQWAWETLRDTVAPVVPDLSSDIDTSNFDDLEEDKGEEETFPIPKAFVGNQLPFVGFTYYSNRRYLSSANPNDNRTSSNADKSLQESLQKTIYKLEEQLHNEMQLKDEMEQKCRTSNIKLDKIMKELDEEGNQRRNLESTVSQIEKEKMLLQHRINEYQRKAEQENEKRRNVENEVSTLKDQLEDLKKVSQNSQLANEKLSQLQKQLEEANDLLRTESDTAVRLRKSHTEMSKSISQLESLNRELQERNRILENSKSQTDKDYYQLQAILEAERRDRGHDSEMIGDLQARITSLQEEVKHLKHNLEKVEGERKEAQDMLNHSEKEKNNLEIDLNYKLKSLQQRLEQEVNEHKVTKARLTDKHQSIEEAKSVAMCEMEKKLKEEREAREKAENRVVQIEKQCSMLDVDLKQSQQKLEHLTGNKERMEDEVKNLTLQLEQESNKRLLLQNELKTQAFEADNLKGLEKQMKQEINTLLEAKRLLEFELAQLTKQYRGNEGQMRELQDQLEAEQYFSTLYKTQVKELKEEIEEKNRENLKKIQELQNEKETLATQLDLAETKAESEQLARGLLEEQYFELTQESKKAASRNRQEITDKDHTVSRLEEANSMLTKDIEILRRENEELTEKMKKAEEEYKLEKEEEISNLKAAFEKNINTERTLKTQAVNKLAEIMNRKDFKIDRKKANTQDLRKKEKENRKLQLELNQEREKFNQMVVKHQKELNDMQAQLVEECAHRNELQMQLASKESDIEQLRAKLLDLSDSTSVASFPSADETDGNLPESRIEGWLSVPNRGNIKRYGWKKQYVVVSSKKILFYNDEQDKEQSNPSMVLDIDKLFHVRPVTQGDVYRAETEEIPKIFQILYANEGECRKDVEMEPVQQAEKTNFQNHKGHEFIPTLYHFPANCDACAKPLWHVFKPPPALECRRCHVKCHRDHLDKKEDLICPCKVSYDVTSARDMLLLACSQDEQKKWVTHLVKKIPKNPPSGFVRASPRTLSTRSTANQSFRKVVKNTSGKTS

`COc1cc2c(Oc3ccc(-c4nc5ccccc5s4)cc3F)ncnc2cc1OCCCN1CCN(C)CC1`: the residual activity in assay [1] was 115%; in assay [2], 53%; in assay [3], 88%; in [4], 135%; in assay [5], 101%; in assay [6], 73%. Besides, the residual activity is 94% in [7], 1% in [8] and 73% in assay [9].
Regarding `COc1cc2c(Oc3ccc(-c4nc5ccccc5s4)cc3)ncnc2cc1OCCCN1CCN(C)CC1`, the residual activity in assay [1] came to 96%; in assay [2], 40%; in assay [3] it was 84%; in [4], 130%; in assay [5] it was 99%; in assay [6] it was 190%. Further, the figures for the residual activity in [7], in assay [8] and in [9] were 91%, 1% and 68%, respectively.
In the case of `COc1cc2c(Oc3ccc(-c4nc5ccccc5s4)cc3)ncnc2cc1OCCCN1CCCC1`, the residual activity in assay [1] turned out to be 97%; in assay [2], 49%; in [3], 90%; in [4], 122%; in assay [5], 84%; in [6], 187%. Further, the residual activity in assay [7] was 110%; in assay [8] it was 1%; in assay [9], 81%.
